Experimental data as given in patent publication US4212862A, “O,O-Diaryl-1-acyloxy-2,2,2-trichloroethylphosphonates and fungicides based thereon” (priority 1978, dated 1980).
Values joined by “and” are separate entries in the source; they are usually repeats but may differ in a detail not shown here. Identical values can stand only once.

Assays:
[1] = test system: stalk rust of wheat (Puccinia graminis); type: in vivo; settings: in vivo
[2] = Acute peroral toxicity for warm-blooded animals (LD50, LD90); type: in vivo, white mice; settings: mouse, in vivo, po, Table 2; peroral; read-out: LD50 for white mice
Method: Toxicity (LD50) was evaluated on males and females of white mice with peroral administration of the compounds. A portion of the test compound was mixed with the emulsifier Twin-20 and diluted with distilled water to the required working concentration. Administration of the preparation was effected by means of a metal probe and syringe directly into the stomach of test animals 2-3 hours after feeding. The tests were performed using several doses, 6 animals per each dose. Subsequent observation was effected for two weeks.

[3] = test system: stalk rust (Puccinia graminis f. tritici); type: in vivo; settings: in vivo

| Structure (SMILES) | Percentage of injury lowered [1] | LD50 at 336 h [2] [mg/kg] | Percentage of plants injured with rust, 1-st evaluation [3] [%] | Percentage of plants injured with rust, 2-nd evaluation [3] [%] | Weight of 1,000 grains [3] [g] | Yield [3] [c/ha] |
| --- | --- | --- | --- | --- | --- | --- |
| CCCC(=O)OC(C(Cl)(Cl)Cl)P(=O)(Oc1ccccc1)Oc1ccccc1 (stereo not drawn) [III] | 68% and 51% | > 500 | 0.5 | 7.0 | 18.4 | 14.00 |
| CCC(=O)OC(C(Cl)(Cl)Cl)P(=O)(Oc1ccccc1)Oc1ccccc1 (stereo not drawn) [II] | 78% and 63% | > 1000 | 0.5 | 11.0 | 16.5 | 11.50 |
| CCCCCCC(=O)OC(C(Cl)(Cl)Cl)P(=O)(Oc1ccccc1)Oc1ccccc1 (stereo not drawn) [IV] | 98% and 74% | > 1000 | 0.5 | 6.5 | 23.8 | 20.00 |
| CCCC(=O)OC(C(Cl)(Cl)Cl)P(=O)(Oc1ccccc1C)Oc1ccccc1C (stereo not drawn) [IX] |  | > 1000 |  |  |  |  |
| CCC(=O)OC(C(Cl)(Cl)Cl)P(=O)(Oc1ccccc1C)Oc1ccccc1C (stereo not drawn) [VIII] | 96% and 76% | > 1000 | 0.5 | 8.5 | 15.3 | 10.15 |
| CC(=O)OC(C(Cl)(Cl)Cl)P(=O)(Oc1ccccc1C)Oc1ccccc1C (stereo not drawn) [VII] | 83% and 77% | > 1000 | 0.5 | 9.0 | 15.1 | 10.10 |
| O=C(OC(C(Cl)(Cl)Cl)P(=O)(Oc1ccccc1)Oc1ccccc1)c1ccccc1 (stereo not drawn) [VI] | 99% and 98% | > 1000 | 0.5 | 8.5 | 16.4 | 11.30 |
| CCCCC(CC)C(=O)OC(C(Cl)(Cl)Cl)P(=O)(Oc1ccccc1)Oc1ccccc1 (stereo not drawn) [V] | 74% and 61% | > 1000 | 0.5 | 13.0 | 14.8 | 9.50 |
| CCC(=O)OC(C(Cl)(Cl)Cl)P(=O)(Oc1cccc(C)c1)Oc1cccc(C)c1 (stereo not drawn) [XIII] | 98% and 85% | > 1000 | 0.5 | 10.0 | 16.9 | 12.05 |
| CC(=O)OC(C(Cl)(Cl)Cl)P(=O)(Oc1cccc(C)c1)Oc1cccc(C)c1 (stereo not drawn) [XII] | 86% and 68% | > 1000 | 0.5 | 8.0 | 16.1 | 11.00 |
| CCCC(=O)OC(C(Cl)(Cl)Cl)P(=O)(Oc1cccc(C)c1)Oc1cccc(C)c1 (stereo not drawn) [XIV] | 99% and 92% | > 1000 | 0.5 | 7.0 | 17.2 | 12.00 |
| CCC(=O)OC(C(Cl)(Cl)Cl)P(=O)(Oc1ccc(C)cc1)Oc1ccc(C)cc1 (stereo not drawn) [XIX] | 100% and 66% | > 1000 | 0.5 | 8.0 | 18.9 | 14.60 |
| Cc1ccccc1OP(=O)(Oc1ccccc1C)C(OC(=O)c1ccccc1)C(Cl)(Cl)Cl (stereo not drawn) [XI] |  | > 1000 | 0.5 | 8.0 | 17.8 | 12.40 |
| CCC(=O)OC(C(Cl)(Cl)Cl)P(=O)(Oc1cccc2ccccc12)Oc1cccc2ccccc12 (stereo not drawn) [XLIII] | 89% and 72% | > 1000 |  |  |  |  |
| CC(=O)OC(C(Cl)(Cl)Cl)P(=O)(Oc1cccc2ccccc12)Oc1cccc2ccccc12 (stereo not drawn) [XLII] | 92% and 87% | > 1000 |  |  |  |  |
| CCCC(=O)OC(C(Cl)(Cl)Cl)P(=O)(Oc1cccc2ccccc12)Oc1cccc2ccccc12 (stereo not drawn) [XLIV] | 71% | > 1000 |  |  |  |  |
| CCC(=O)OC(C(Cl)(Cl)Cl)P(=O)(Oc1ccc(Cl)c(C)c1)Oc1ccc(Cl)c(C)c1 (stereo not drawn) [XLI] | 91% and 53% | > 1000 |  |  |  |  |
| CCCC(=O)OC(C(Cl)(Cl)Cl)P(=O)(Oc1ccc(-c2ccccc2)cc1)Oc1ccc(-c2ccccc2)cc1 (stereo not drawn) [XLVIII] | 67% | > 1000 |  |  |  |  |
| CCC(=O)OC(C(Cl)(Cl)Cl)P(=O)(Oc1ccc(-c2ccccc2)cc1)Oc1ccc(-c2ccccc2)cc1 (stereo not drawn) [XLVII] |  | > 1000 |  |  |  |  |
| CC(=O)OC(C(Cl)(Cl)Cl)P(=O)(Oc1ccc(-c2ccccc2)cc1)Oc1ccc(-c2ccccc2)cc1 (stereo not drawn) [XLVI] |  | > 1000 |  |  |  |  |
